{"source": "patent US20170158636A1", "about": "“FUNCTIONALISED AND SUBSTITUTED CARBAZOLES AS ANTI-CANCER AGENTS” (Novogen Ltd., priority 2014, published 2017)", "key": {"[1]": {"system": "A549 lung (NSLC) cancer cells", "experiment": "Anti-proliferative activity, cell-titre luminescent viability assay", "assay_type": "cell-based", "conditions": "Homo sapiens, 72 hours exposure", "description": "(§1) The ability of compounds 1001-1018 and 1037-1039 to inhibit the proliferation of cancer cells representative of neuroblastoma, melanoma, prostate cancer, colorectal cancer, non-small cell lung carcinoma, and triple negative breast cancer was assessed (Table 1).\n(§2) Briefly, a pre-determined number of cells as calculated from cell growth assays for each of the cell lines employed were seeded into their respective culture medium (using ATCC culture parameters—http://www.atcc.org) and cultured for 24 hours at 37° C. and 5% CO2 in 96-well culture plates. Once attached, each cell line was then exposed to increasing concentrations of each respective analogue (0.03, 0.3, 3 and 30 μM for compounds 1001-13 and 1015-18; 0.1, 0.3, 1, 3, 10 and 30 μM for compounds 1014 and 1037-39), cultured for a further 72 hours and exposed to cell-titre luminescent reagent (100 μL/well) for a further 30 minutes) to measure cell viability. Luminescence was captured using an EnVision multilabel reader and the data for each analogue concentration compared against no treatment control. For compounds 1001-13 and 1015-18, semi-log plots of Percent of Control versus concentration were prepared and IC50 determined using linear regression analysis. For compounds 1014 and 1037-39, cell viability was normalized to control (vehicle alone) and dose-response curves, and half maximal effective concentration (EC50) values were determined using Graph Pad Prism 6 (nonlinear regression sigmoidal dose-response variable slope)."}, "[2]": {"system": "DU145 prostate cancer cells", "experiment": "Anti-proliferative activity, cell-titre luminescent viability assay", "assay_type": "cell-based", "conditions": "Homo sapiens, DU-145, 72 hours exposure", "description": "as §1, §2"}, "[3]": {"system": "MDA-MB-231 breast cancer cells", "experiment": "Anti-proliferative activity, cell-titre luminescent viability assay", "assay_type": "cell-based", "conditions": "Homo sapiens, 72 hours exposure", "description": "as §1, §2"}, "[4]": {"system": "PC3 prostate cancer cells", "experiment": "Anti-proliferative activity, cell-titre luminescent viability assay", "assay_type": "cell-based", "conditions": "72 hours exposure", "description": "as §1, §2"}, "SK-Mel-28 melanoma cells": {"system": "SK-Mel-28 melanoma cells", "experiment": "Anti-proliferative activity, cell-titre luminescent viability assay", "assay_type": "cell-based", "conditions": "Homo sapiens, 72 hours exposure", "description": "as §1, §2"}, "[5]": {"system": "actin cytoskeleton in SK-N-SH neuroblastoma cells", "experiment": "Microfilament disruption assay (phalloidin staining, linear feature quantitation)", "assay_type": "cell-based", "conditions": "0-40 μM, 24 hours post treatment", "description": "FIG. 1: Imaging and quantitation of actin filaments in SK-N-SH neuroblastoma cells treated with compound (A) 1007, (B) 1013 and (C) 1016. Cells were stained with 488-Atto-Phallodin and DAPI to visualize the actin filament bundles and the nucleus, respectively. Shown in the top panel is a representative gray scale immunofluorescent image from control (vehicle alone), 5 μM and 10 μM treated cells. […] The coloured lines indicate the detected actin filaments. Also shown is the quantitation of cell number, filament number/cell and filament number/cell area (μM^2). Statistical analysis was performed using a one way ANNOVA-multiple comparison where each drug treated group was compared to the control. ****p<0.0001, […].\nThe ability of compounds 1007, 1013 and 1016 to disrupt the actin cytoskeleton was assessed in vitro using the microfilament disruption assay (FIG. 1).\nBriefly, SK-N-SH neuroblastoma cells were seeded at 1800 cells/well in a 384 Perkin Elmer High Content Imaging “Cell Carrier” plate and left to plate down 24 hours prior to treatment. Cells were then treated with 0-40 μM of the test compounds (1:2 serial dilution in a 10 point dose response). 24 hours post treatment, cells were fixed with 4% w/v paraformaldehyde (PBS), permeabilized with Triton-X-100 and stained with 488-Atto-Phallodin and DAPI to visualize the actin filament bundles and the nucleus respectively. Single plane images were obtained on the Perkin Elmer Opera confocal microscope using a 20× objective. Twelve fields of view per condition (representing approximately 300-800 cells) were imaged. Images were then exported and changes in the organization and numbers of actin filaments within the cell were quantitated using a linear feature detection algorithm developed by CSIRO (Vindin et al. 2014). This algorithm detects the “ridge lines” or “peaks” in local pixel intensity in the cell image. It is these “ridge lines” that correspond to actin filament bundles and allow us to quantitate the number of filaments per cell."}, "Tpm3.1": {"target": "Tpm3.1 (Homo sapiens, UniProt P06753)", "sequence (P06753 1-248 isoform P06753-2)": "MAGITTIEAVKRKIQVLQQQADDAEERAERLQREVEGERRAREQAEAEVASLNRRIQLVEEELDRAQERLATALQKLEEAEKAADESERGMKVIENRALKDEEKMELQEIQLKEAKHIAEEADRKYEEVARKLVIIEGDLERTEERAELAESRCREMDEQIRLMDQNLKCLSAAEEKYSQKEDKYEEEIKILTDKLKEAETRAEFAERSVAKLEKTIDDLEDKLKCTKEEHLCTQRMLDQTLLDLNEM", "experiment": "Cell free actin co-sedimentation assay", "assay_type": "binding", "conditions": "50 μM compound, 3 μM F-actin", "description": "(§3) FIG. 3: Impact of compound 1001 on the polymerization of tropomyosin and its subsequent association with actin. Increasing concentrations of (A) cytoskeletal Tpm3.1 or (B) muscle alpha-fast Tm (0.3-4.0 μM) were pre-incubated with 1% (v/v) DMSO (vehicle control) or 50 μM ATM-1001 prior to combining with 3 μM F-actin. The Tm/F-actin mixture was sedimented and the ratio of tropomyosin:actin in the pellet, normalized to the ratio that occurs at tropomyosin saturation, was plotted against the concentration of unbound tropomyosin in the supernatant.\n(§4) Cell free actin co-sedimentation assays were preformed to analyze the impact of compound 1001 on the polymerization of tropomyosin and subsequent association with actin. The impact of compound 1001 on Tpm3.1 binding was compared to the striated muscle isoform, alpha-fast Tm, which has an unrelated C-terminus."}, "alpha-fast Tm": {"target": "alpha-fast Tm (Homo sapiens, UniProt P09493)", "sequence (P09493 whole entry)": "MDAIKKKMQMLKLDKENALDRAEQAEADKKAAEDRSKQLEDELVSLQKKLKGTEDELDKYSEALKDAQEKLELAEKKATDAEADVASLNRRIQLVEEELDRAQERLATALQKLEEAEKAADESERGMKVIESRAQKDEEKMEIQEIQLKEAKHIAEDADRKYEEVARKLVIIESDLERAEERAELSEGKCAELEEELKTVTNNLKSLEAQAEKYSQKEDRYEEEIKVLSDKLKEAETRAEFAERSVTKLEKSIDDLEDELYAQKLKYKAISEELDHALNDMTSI", "experiment": "Cell free actin co-sedimentation assay", "assay_type": "binding", "conditions": "50 μM compound, 3 μM F-actin", "description": "as §3, §4"}, "Skeletal myosin II": {"system": "Skeletal myosin II", "experiment": "Actin-activated myosin II ATPase activity", "assay_type": "biochemical", "conditions": "50 μM, absence of Tpm3.1", "description": "FIG. 4: Effect of anti-tropomyosin compounds on actin-activated myosin II ATPase activity. Skeletal myosin II (30-60 nM) was incubated with 1% (v/v) DMSO or 50 μM of Blebbistatin, TR100 or compound 1001 for 5 min prior to mixing with 3 μM F-actin. Reactions were initiated with 1 mM ATP and inorganic phosphate release was detected spectrophotometrically. Data represents mean±SEM, for n=2-4 independent repeats. **P-value, 0.001<0.01.\nTo exclude an off-target activity, the impact of compound 1001 and TR100 (another small molecule with anti-tropomyosin activity) on myosin II ATPase activity was evaluated in the absence of Tpm3.1. The small molecule blebbistatin was included as a positive control known to inhibit myosin II ATPase activity. Blebbistatin acts by binding to the myosin-ADP-Pi complex and slowing the release of inorganic phosphate (Kovacs et al., 2004). Myosin II was pre-incubated with 50 μM of blebbistatin, TR100 or 1001 prior to mixing with F-actin. […] Compound 1001 had no effect on myosin ATPase activity at equivalent concentrations to that of TR100 (FIG. 4)."}, "A375 melanoma xenograft": {"system": "A375 melanoma xenograft", "experiment": "A375 melanoma flank xenograft model", "assay_type": "in vivo", "conditions": "IV 60 mg/kg in 30% (w/v) Captisol daily for 16 days, mice", "description": "FIG. 5: Effect of compound 1001 on tumour growth in vivo. Compound 1001 was administered IV at 60 mg/kg for 16 days in a flank xenograft model of melanoma (A375). Tumour volume was measured every 2-3 days. **p<0.01, ***P<0.001.\nIn vivo efficacy studies for compound 1001 were conducted using an A375 melanoma xenograft model in Foxn-1 nu/nu athymic mice. The human melanoma cell line A375 (sourced from American Type Culture Collection (ATCC), USA) was used for developing the flank xenograft model. Briefly, five million cells were injected subcutaneously in the right flank region of the animal. When the tumors reached 130-150 mm^3 the animals were randomized into two groups, each group with 8 animals in them, so that the average tumor volume of all the groups was same.\nCompound 1001 was delivered intravenously (IV) at 60 mg/kg in a 30% (w/v) Captisol (cyclodextrin-containing) formulation daily for 16 days. The control group was dosed with the Captisol vehicle alone."}}}
{"smiles": "CN(C)CCCn1c2ccccc2c2cc(C(=O)N3CCN(CCc4ccccc4)CC3)ccc21", "note": "[Compound 1001, (9-(3-(dimethylamino)propyl)-9H-carbazol-3-yl)(4-phenethylpiperazin-1-yl)methanone]", "values": [{"measurement": "IC50", "setting": "[1]", "result": 8.5, "unit": "µM"}, {"measurement": "IC50", "setting": "[2]", "result": "> 30", "unit": "µM"}, {"measurement": "IC50", "setting": "[3]", "result": 4.4, "unit": "µM"}, {"measurement": "IC50", "setting": "[4]", "result": 5.5, "unit": "µM"}, {"measurement": "IC50", "setting": "SK-Mel-28 melanoma cells", "result": 2.3, "unit": "µM"}, {"measurement": "disruption of the actin cytoskeleton", "setting": "[5]", "result": "strong on-target, dose-dependent profile"}, {"measurement": "polymerization and association of Tpm3.1 with actin", "setting": "Tpm3.1", "result": "profoundly inhibited"}, {"measurement": "binding affinity and cooperativity of alpha-fast Tm for F-actin", "setting": "alpha-fast Tm", "result": "not affected"}, {"measurement": "effect on actin-activated myosin II ATPase activity", "setting": "Skeletal myosin II", "result": "no effect"}, {"measurement": "reduction in melanoma tumor growth", "setting": "A375 melanoma xenograft", "result": "~40", "unit": "%"}, {"measurement": "tolerance of treatment", "setting": "A375 melanoma xenograft", "result": "well tolerated"}]}
